Results published in patent publication US20180280465A1 (EVER Neuro Pharma GmbH, priority 2015, published 2018).
Where two headings read alike, the source gives them in different places.

Legend:
[1] = cited from earlier work
[2] = in NaCl solution; cited from earlier work
[3] = tested on: NIH/3T3 murine fibroblasts; test: Resazurin-fibroblast-assay for assessment of cytotoxicity
Experimental: The vitality of the fibroblasts was detected with the Resazurin Reagent (Resazurin sodium salt powder (Sigma Aldrich R7017-1G)). Vital and metabolically active cells reduce the non-fluorescent dye resazurin to the fluorescent dye resorufin by using NADH. The amount of fluorescence is proportional to the amount of vital cells. The fluorescence intensity at 535 nm (excitation)/595 nm (emission) is detected with a plate reader.
Cells were cultured in a culture medium (DMEM high glucose) containing 10% FBS, 2 mM L-glutamine and 100 μg/ml penicilline/streptomycin under standard cell culture conditions (37° C., 5% CO2).
The cells were then incubated with the respective solutions in the incubator for 4 h, 18 h, or 24 h (depending on the assay protocol). For every time point a separate 96-well plate was prepared. • Day 1 or 2: Readout—Determination of the fluorescence intensity (resazurin readout): For the determination of the fluorescence intensity (resazurin readout) the medium (100 μl/well) was removed and 100 μl/well resazurin was added (final concentration 0.5 mM; 2.2 ml resazurin stock solution prepared in PBS with a final concentration of 2.5 mM was diluted in 8.8 ml proliferation medium). In the wells serving for the blank control (no cells) 100 μl/well resazurin (0.5 mM) was added. The 96-well plate was then incubated for 1 h in the incubator. The fluorescence intensity was then detected at 535 nm (excitation)/595 nm (emission) with a plate reader.

CN1CCc2cccc3c2[C@H]1Cc1ccc(O)c(O)c1-3 [apomorphine, (6aR)-6-methyl-5,6,6a,7-tetrahydro-4H-dibenzo[de,g]quinoline-10,11-diol]
duration of effect (mean) ([1]; single dose): 40 min | incidence of nodule formation ([1]; subcutaneous apomorphine infusion therapy, meta analysis): 70% | patients terminating therapy because of irritations at the injection site ([1]; subcutaneous infusion, within one year): 70% | solubility [2]: < 10000 µg/mL

O=C1O[C@H]([C@@H](O)CO)C(O)=C1O [Ascorbate, (5R)-[(1S)-1,2-dihydroxyethyl]-3,4-dihydroxyfuran-2(5H)-one]
effect on the toxic effect of oxoapomorphine [3]: had no beneficial effect if the oxidative degradation product oxo-apomorphine was already present in the formulation

CC(O)CO (stereo not drawn) [α-propylene glycol, propane-1,2-diol]
influence of isotonization agent on the cytotoxic effects in the cell culture system ([3]; NIH/3T3 fibroblasts): did not have any influence (negative or positive) on the cytotoxic effects

N[C@@H](CCC(=O)N[C@@H](CS)C(=O)NCC(=O)O)C(=O)O [Glutathione, (2S)-2-amino-4-{[(1R)-1-[(carboxymethyl)carbamoyl]-2-sulfanylethyl]carbamoyl}butanoic acid]
effect on the toxic effect of oxoapomorphine ([3]; NIH/3T3 cells, oxoapomorphine present): could abolish the toxic effect of oxoapomorphine
